Assay results: US12246009B2, “Compositions and methods for treating neurodegenerative, myodegenerative, and lysosomal storage disorders” (GEORGETOWN UNIVERSITY, priority 2018, dated 2025)
“Also recorded” adds a separate entry of the source.

Columns and labels:
Ab1 [1] = target: T1, Ab1 (Mus musculus, UniProt P00520); test: Activated (phosphorylated) Ab1 (245) immunoblot in transgenic APP mice; type: in vivo; details: i.p., 21 days
T1 construct: Brains from treated mice compared with DMSO treated mice were homogenized in STEN lysis buffer; from tissue; host or cells: brain of rTg4510 or TgAPP mice
T1 sequence (P00520 whole entry): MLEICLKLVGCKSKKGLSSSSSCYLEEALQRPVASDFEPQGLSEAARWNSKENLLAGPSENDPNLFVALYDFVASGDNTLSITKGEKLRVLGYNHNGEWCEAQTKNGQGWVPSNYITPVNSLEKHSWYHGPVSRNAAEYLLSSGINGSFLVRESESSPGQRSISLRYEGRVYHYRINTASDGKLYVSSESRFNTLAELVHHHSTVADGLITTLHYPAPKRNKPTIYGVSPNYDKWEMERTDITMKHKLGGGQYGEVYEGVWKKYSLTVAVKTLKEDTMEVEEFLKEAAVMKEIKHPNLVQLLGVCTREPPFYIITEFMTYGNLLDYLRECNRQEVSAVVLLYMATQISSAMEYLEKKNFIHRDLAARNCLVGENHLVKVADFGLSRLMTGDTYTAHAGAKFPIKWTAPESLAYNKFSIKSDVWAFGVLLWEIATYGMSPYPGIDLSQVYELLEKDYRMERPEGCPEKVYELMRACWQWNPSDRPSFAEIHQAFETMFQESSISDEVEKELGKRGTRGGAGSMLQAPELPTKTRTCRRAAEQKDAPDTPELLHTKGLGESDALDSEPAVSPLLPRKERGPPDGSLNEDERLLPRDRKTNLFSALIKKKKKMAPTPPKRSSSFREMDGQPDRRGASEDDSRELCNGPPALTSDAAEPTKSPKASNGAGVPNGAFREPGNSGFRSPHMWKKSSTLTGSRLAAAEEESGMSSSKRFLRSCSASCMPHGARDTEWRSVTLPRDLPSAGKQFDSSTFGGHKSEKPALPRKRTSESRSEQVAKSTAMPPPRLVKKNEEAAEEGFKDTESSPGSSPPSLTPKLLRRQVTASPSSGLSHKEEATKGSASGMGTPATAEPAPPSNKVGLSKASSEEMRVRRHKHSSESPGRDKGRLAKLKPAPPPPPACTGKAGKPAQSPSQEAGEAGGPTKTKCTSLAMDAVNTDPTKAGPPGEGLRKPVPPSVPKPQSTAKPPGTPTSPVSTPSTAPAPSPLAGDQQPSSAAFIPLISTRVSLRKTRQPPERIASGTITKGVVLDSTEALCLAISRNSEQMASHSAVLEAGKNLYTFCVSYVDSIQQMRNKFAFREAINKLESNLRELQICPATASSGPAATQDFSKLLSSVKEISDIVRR

Ab1 [2] = target: T1, Ab1; test: Activated Ab1 immunoblot in rTG4510 mice; type: in vivo; details: rTG4510 mice, 1.25, 2.5 or 5 mg/kg i.p., 7 days
Tau (HT7) = Tau (HT7) in Tau transgenic mice; type: in vivo, mouse; details: seven days of treatment, 1.25 mg/kg and 2.5 mg/kg
human alpha-synuclein = test: Human alpha-synuclein ELISA and immunoblot in A53T mice; type: in vivo, mouse; details: 2.5 mg/kg i.p.; for alpha-synuclein level in A53T mice: vs DMSO
B35 cells = test: Lactate dehydrogenase (LDH) assay, cytotoxicity / cell viability; type: cell-based; details: for LDH measured in the media (cell death / toxicity): 24 hour transfection with pTau or α-synuclein
Protocol: Rat neuroblastoma B35 cells were grown in Dulbecco's Modified Eagle's Medium (DMEM) with 10% Fetal Bovine Serum (FBS) and 1% penicillin/streptomycin and incubated at 37° C. with 5% CO2. For the experiments, cells were transferred to 12-well plates (Cat. #150628, ThermoFisher, Waltham, MA) and grown to at least 70% confluence. Transient transfection was performed with 3 μg P301 L tau (Cat. #30145, Addgene) cDNA or 3 μg human α-synuclein cDNA using Fugene HD transfection reagent (Cat. #E2311, Promega, Madison WI) for 24 hours. […] Cell culture media was collected and cells were harvested using sodium-tris, EDTA, NP-40 (STEN) buffer and centrifuged at 10,000×g for 20 minutes at 4′C and supernatant was collected. Cell viability was determined via lactate dehydrogenase assay (Cat. #88954, Thermofisher) and MTT assay (Cat. #V13154, Thermofisher). Protein was extracted by removing culture medium and adding 0.2 ml 1× STEN buffer (50 mM. Tris (pH 7.6), 150 mM NaCl, 2 mM EDTA, 0.2% NP-40, 0.2% BSA, 20 mM. PMSF and protease cocktail inhibitor) to cell layer and incubated on ice for 10 minutes. The bottom of the well was scraped and allowed to incubate on ice for an additional 10 minutes. Cell lysates were collected, stored at −80° C., and used for additional analyses.
Cellular cytotoxicity was quantitatively measured by assessment of LDH; a cytosolic enzyme that is released from damaged cells into the cellular media, after exposure to the drug 5 hours after initial dosage. The cell culture media was collected, and an aliquot was coupled with a lactate and NAD+. LDH catalyzes the reaction that converts lactate into pyruvate to produce NADH. NADH, in turn, reduces a tetrazolium salt (INT) into a red formazan product. The amount of LDH in the media is proportional to the amount of formazan, which was measured at 490 nm. The absorbance at 680 nm, to measure the background signal from the instrument, was subtracted from the absorbance at 490 nm to calculate the LDH activity.

pTau (231) (AT180) = pTau (231) (AT180) Western blot in rTG4510 transgenic mice; type: in vivo, mouse; details: 1.25 mg/kg, 2.5 mg/kg or 5.0 mg/kg
dopamine = test: Dopamine and homovanillic acid (HVA) levels in A53T mice; type: in vivo, mouse; details: 2.5 mg/kg i.p., 21 days
hippocampus of APP mice = test: Nissl staining of hippocampal sections of APP mice (cell death); details: 1.25 mg/kg and 2.5 mg/kg
DDR1 [3] = target: T2, DDR1 (Mus musculus, UniProt Q03146); test: Phosphorylated (active) DDR1 (pMCK10) immunoblot in rTG4510 mice; type: in vivo; details: for phosphorylated (active) DDR1 (pMCK10), immunoblot: 1.25 mg/kg or 2.5 mg/kg i.p.
T2 construct: Brains were collected and homogenized in 1.0 ml 1× STEN buffer; from tissue; host or cells: brain of rTg4510 or TgAPP mice
T2 sequence (Q03146 20-911): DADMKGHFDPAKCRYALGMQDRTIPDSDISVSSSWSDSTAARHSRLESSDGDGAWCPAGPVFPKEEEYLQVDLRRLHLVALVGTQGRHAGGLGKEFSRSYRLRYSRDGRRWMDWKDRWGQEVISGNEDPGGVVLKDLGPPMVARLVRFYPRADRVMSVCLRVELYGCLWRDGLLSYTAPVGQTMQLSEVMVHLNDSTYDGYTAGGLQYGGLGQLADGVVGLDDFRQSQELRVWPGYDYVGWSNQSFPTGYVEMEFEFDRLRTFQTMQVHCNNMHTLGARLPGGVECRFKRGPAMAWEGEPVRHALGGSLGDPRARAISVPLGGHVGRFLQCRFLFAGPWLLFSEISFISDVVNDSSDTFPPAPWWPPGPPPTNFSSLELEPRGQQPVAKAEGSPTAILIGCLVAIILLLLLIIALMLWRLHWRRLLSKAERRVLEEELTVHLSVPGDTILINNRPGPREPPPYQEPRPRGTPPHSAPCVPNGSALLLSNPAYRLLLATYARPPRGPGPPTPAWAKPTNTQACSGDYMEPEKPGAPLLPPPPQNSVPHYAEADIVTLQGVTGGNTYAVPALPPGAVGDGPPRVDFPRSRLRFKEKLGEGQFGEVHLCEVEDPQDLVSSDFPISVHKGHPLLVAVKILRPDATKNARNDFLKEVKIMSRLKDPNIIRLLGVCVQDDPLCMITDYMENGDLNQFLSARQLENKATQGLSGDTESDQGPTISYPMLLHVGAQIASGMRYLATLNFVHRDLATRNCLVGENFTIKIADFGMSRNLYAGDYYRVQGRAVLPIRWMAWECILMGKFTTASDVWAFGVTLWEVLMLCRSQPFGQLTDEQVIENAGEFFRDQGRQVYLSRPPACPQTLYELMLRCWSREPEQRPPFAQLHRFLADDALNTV

APP mice = test: Morris Water Maze test in APP mice; type: in vivo, mouse; details: 1.25 mg/kg, trend, no significant difference between groups
DDR1 [4] = target: T2, DDR1; test: Phosphorylated DDR1 immunoblot in transgenic APP mice; type: in vivo; details: 21 days

Cc1cccc(-c2cc3nccc(Nc4ccccc4)c3s2)c1 [BK40143, N-Phenyl-2-(m-tolyl)thieno[3,2-b]pyridin-7-amine]
activated (phosphorylated) Ab1 (245) (Ab1 [1]): does not engage Ab1; also recorded: did not engage Ab1
activated Ab1, immunoblot (Ab1 [2]): did not engage
activated Ab1, immunoblot (Ab1 [2]; listed as BK-40143): does not engage
Tau (HT7) level (Tau (HT7)): significantly reduced
reduction in the level of human alpha-synuclein, ELISA (human alpha-synuclein; 21 consecutive days, vs DMSO treated A53T mice): 39%
alpha-synuclein level in A53T mice (human alpha-synuclein; 21 consecutive days, 2.5 mg/kg): significantly reduces
alpha-synuclein level in A53T mice (human alpha-synuclein; 21 consecutive days, listed as BK-40143, 2.5 mg/kg): significantly decreased
reduction in alpha-synuclein, immunoblots (human alpha-synuclein; 21 days, immunoblots mirrored the ELISA): 40%
lactate dehydrogenase (LDH), neuroprotective effect (B35 cells; 1 μM, 16 hours of treatment, compared to control): decrease
LDH measured in the media (cell death / toxicity) (B35 cells; five hours of treatment): does not result in toxicity or cell death
LDH measured in the media (cell death / toxicity) (B35 cells; five hours of treatment, listed as BK41043): without any change to LDH levels
cell viability via LDH (B35 cells; five hours of treatment, with decreasing concentrations): stepwise increase in cell viability
levels of pTau (231) (AT180), Western blot (pTau (231) (AT180)): did not affect
level of the dopamine metabolite homovanillic acid (HVA) (dopamine): increase
increase of overall level of dopamine (dopamine; 2.5 mg/kg): 30%
increase of overall level of dopamine (dopamine; listed as BK-40143, 2.5 mg/kg): about 30%
cell death in the hippocampus (Nissl staining intensity) (hippocampus of APP mice): does not cause cell death
phosphorylated (active) DDR1 (pMCK10), immunoblot (DDR1 [3]; rTG4510 mice, 7 days): deactivated DDR; also recorded: deactivated DDR1
phosphorylated (active) DDR1 (pMCK10), immunoblot (DDR1 [3]; rTG4510 mice, 7 days, listed as BK-40143): in vivo inhibition of DDR1
deactivation of DDR1 (phosphorylated DDR1 immunoblot) (DDR1 [3]; rTG4510 mice, 5 mg/kg i.p., 7 days): not
deactivation of DDRs (DDR1 [3]; rTG4510 tauopathy mouse model, i.p., 7 consecutive days): about 50%
distance travelled before first entry to the platform, Morris Water Maze (APP mice): lower distance travelled before the first entry
latency to the first entry, Morris Water Maze (APP mice): lower latency to first entry
number of platform entries, Morris Water Maze (APP mice): higher numbers of platform entries
deactivation of DDR1 (phosphorylated DDR1 immunoblot) (DDR1 [4]; 1.25 mg/kg i.p.): 40%
deactivation of DDR1 (phosphorylated DDR1 immunoblot) (DDR1 [4]; 2.5 mg/kg i.p.): 31%
